Reference: patent US20060069132A1, “Azolecarboxamide herbicides” (priority 2004, published 2006)

Experiments:
large crabgrass = assay: Test B pre-/postemergence herbicide test; assay type: in vivo, Digitaria sanguinalis; conditions: for Crabgrass, Large plant response rating (0 to 100 scale) / Plant response rating, Crabgrass, Large: 0 = no effect, 100 = complete control
How it was run: (§1)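 Formulation: non-phytotoxic solvent mix with surfactant. Timing: preemergence on seed and postemergence on 2–18 cm plants, applied concurrently. Readout after 13–15 d greenhouse: visual 0–100 control rating against controls.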

velvetleaf = assay: Test B pre-/postemergence herbicide test; assay type: in vivo, Abutilon theophrasti
How it was run: as §1

barnyardgrass [1] = assay: Test B pre-/postemergence herbicide test; assay type: in vivo, Echinochloa crus-galli; conditions: for Barnyardgrass plant response rating (0 to 100 scale) / Plant response rating, Barnyardgrass: 0 = no effect, 100 = complete control
How it was run: (§2)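 Pre: seeds sown, then sprayed. Post: 1–4-leaf plants (2–18 cm) sprayed at the same time. Paddy: flooded, treated at 2-leaf stage. Formulation: non-phytotoxic solvent with surfactant. Greenhouse 13–15 days; visual 0–100 score relative to controls.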

Surinam grass = assay: Test B pre-/postemergence herbicide test; assay type: in vivo, Urochloa decumbens; conditions: for Surinam Grass plant response rating (0 to 100 scale) / Plant response rating, Surinam Grass: 0 = no effect, 100 = complete control
How it was run: as §1

lambsquarters = assay: Test B pre-/postemergence herbicide test; assay type: in vivo, Chenopodium album; conditions: for Lambsquarters plant response rating (0 to 100 scale) / Plant response rating, Lambsquarters: 0 = no effect, 100 = complete control, preemergence
How it was run: as §1

cocklebur = assay: Test B pre-/postemergence herbicide test; assay type: in vivo, Xanthium strumarium; conditions: for Cocklebur plant response rating (0 to 100 scale) / Plant response rating, Cocklebur: 0 = no effect, 100 = complete control, preemergence
How it was run: as §2

corn = assay: Test B pre-/postemergence herbicide test; assay type: in vivo, Zea mays; conditions: for Corn plant response rating (0 to 100 scale) / Plant response rating, Corn: 0 = no effect, 100 = complete control
How it was run: as §1

wild oat = assay: Test B postemergence herbicide test; assay type: in vivo, Avena fatua
How it was run: (§3)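 Each value is a visual 0–100 response rating taken against controls 13 to 15 days after treatment in the greenhouse. Plants received formulated chemical postemergence at the 1- to 4-leaf stage or, in flooded paddy, at the 2-leaf stage.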

blackgrass = assay: Test B postemergence herbicide test; assay type: in vivo, Alopecurus myosuroides
How it was run: (§4)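 Read-out: visual comparison with controls, scored 0 to 100, where 100 means complete control and 0 no effect. Formulated chemicals were applied postemergence to plants 2–18 cm tall (1- to 4-leaf), or to flooded-paddy plants at the 2-leaf stage, then held 13 to 15 days under glass.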

[2] = test system: small flower umbrella sedge; assay: Test B flooded paddy test; assay type: in vivo, Cyperus difformis; conditions: 1000 g ai/ha, scale 0 to 100 (0 no effect, 100 complete control)
How it was run: as §4

wheat = assay: Test B postemergence herbicide test; assay type: in vivo, Triticum aestivum; design: key to Wheat plant response rating: 0 = no effect, 100 = complete control
How it was run: as §3

barnyardgrass [3] = assay: Test B flooded paddy test; assay type: in vivo, Echinochloa crus-galli; conditions: 1000 g ai/ha, scale 0 to 100 (0 no effect, 100 complete control)
How it was run: as §4

rice = assay: Test B flooded paddy test; assay type: in vivo, Oryza sativa; conditions: 1000 g ai/ha, scale 0 to 100 (0 no effect, 100 complete control)
How it was run: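 Scale 0–100: zero equals no visible effect, 100 complete control, judged by eye relative to controls. Timing: 13 to 15 days in greenhouse post-treatment. Growth stage at spraying: two leaves (paddy) or one to four leaves, 2–18 cm (postemergence).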

morningglory = assay: Test B pre-/postemergence herbicide test; assay type: in vivo, Ipomoea coccinea; conditions: for Morningglory plant response rating (0 to 100 scale) / Plant response rating, Morningglory: 0 = no effect, 100 = complete control
How it was run: as §2

ducksalad = assay: Test B flooded paddy test; assay type: in vivo, Heteranthera limosa; conditions: 1000 g ai/ha, scale 0 to 100 (0 no effect, 100 complete control)
How it was run: as §4

[4] = 125 g ai/ha, visual rating, scale 0 (no effect) to 100 (complete control), postemergence
[5] = 500 g ai/ha, visual rating, preemergence
[6] = postemergence, 500 g ai/ha, scale 0 to 100, 0 is no effect, 100 is complete control
[7] = 500 g ai/ha, visual rating, 0 = no effect, 100 = complete control, preemergence
[8] = 125 g ai/ha, 0 is no effect, 100 is complete control, preemergence
[9] = Postemergence, 500 g ai/ha, scale 0 (no effect) to 100 (complete control)
[10] = postemergence, 125 g ai/ha, scale 0 to 100
[11] = postemergence, 125 g ai/ha, visual rating, scale 0 (no effect) to 100 (complete control)
[12] = postemergence, 500 g ai/ha, visual rating, scale 0 (no effect) to 100 (complete control)

CCNC(=O)c1ccc(F)c(NC(=O)c2cc(C3(C)CC3)nn2CC)c1 [Compound 300]
Crabgrass, Large plant response rating (0 to 100 scale) (large crabgrass; 125 g ai/ha, preemergence): 100 | Crabgrass, Large plant response rating (large crabgrass; [4]): 10 | Plant response rating, Crabgrass, Large (large crabgrass; [5]): 100 | Crabgrass, Large plant response rating (large crabgrass; [6]): 30 | Velvetleaf plant response rating (velvetleaf; [4]): 40 | Plant response rating, Velvetleaf (velvetleaf; [7]): 100 | Velvetleaf plant response rating (velvetleaf; [6]): 70 | Barnyardgrass plant response rating (0 to 100 scale) (barnyardgrass [1]; 125 g ai/ha, preemergence): 70 | Barnyardgrass plant response rating (barnyardgrass [1]; [4]): 30 | Plant response rating, Barnyardgrass (barnyardgrass [1]; [5]): 90 | Barnyardgrass plant response rating (barnyardgrass [1]; [6]): 50 | Surinam Grass plant response rating (0 to 100 scale) (Surinam grass; 125 g ai/ha, preemergence): 80 | Surinam Grass plant response rating (Surinam grass; [4]): 10 | Plant response rating, Surinam Grass (Surinam grass; [5]): 100 | Surinam Grass plant response rating (Surinam grass; [6]): 10 | Lambsquarters plant response rating (0 to 100 scale) (lambsquarters; 125 g ai/ha): 100 | Lambsquarters plant response rating (lambsquarters; [4]): 70 | Plant response rating, Lambsquarters (lambsquarters; 500 g ai/ha, visual rating): 100 | Lambsquarters plant response rating (lambsquarters; [6]): 80 | Cocklebur plant response rating (0 to 100 scale) (cocklebur; 125 g ai/ha): 10 | Cocklebur plant response rating (cocklebur; [4]): 10 | Plant response rating, Cocklebur (cocklebur; 500 g ai/ha, visual rating): 20 | Cocklebur plant response rating (cocklebur; [6]): 50 | Corn plant response rating (0 to 100 scale) (corn; 125 g ai/ha, preemergence): 0 | Corn plant response rating (corn; [4]): 30 | Plant response rating, Corn (corn; [5]): 70 | Corn plant response rating (corn; [6]): 30 | Oat, Wild plant response rating (wild oat; [4]): 30 | Oat, Wild plant response rating (wild oat; [6]): 30 | Blackgrass plant response rating (blackgrass; [4]): 10 | Blackgrass plant response rating (blackgrass; [6]): 30 | Sedge, Umbrella plant response rating [2]: 90 | Wheat plant response rating (wheat; [4]): 10 | Wheat plant response rating (wheat; [6]): 20 | Barnyardgrass plant response rating (barnyardgrass [3]): 90 | Rice plant response rating (rice): 90 | Morningglory plant response rating (0 to 100 scale) (morningglory; 125 g ai/ha, preemergence): 10 | Morningglory plant response rating (morningglory; [4]): 90 | Plant response rating, Morningglory (morningglory; [5]): 60 | Morningglory plant response rating (morningglory; [6]): 90 | Ducksalad plant response rating (ducksalad): 90

CCN(C(C)=O)C(=O)c1ccc(F)c(NC(=O)c2cc(C(C)(C)C)nn2CC)c1 [Compound 413]
Plant response rating (0 to 100 scale), Crabgrass, Large (large crabgrass; [8]): 20 | Crabgrass, Large plant response rating (large crabgrass; [9]): 20 | Crabgrass, Large plant response rating (large crabgrass; [10]): 10 | Plant response rating (0 to 100 scale), Velvetleaf (velvetleaf; [8]): 0 | Velvetleaf plant response rating (velvetleaf; [9]): 50 | Velvetleaf plant response rating (velvetleaf; [10]): 30 | Plant response rating (0 to 100 scale), Barnyardgrass (barnyardgrass [1]; [8]): 40 | Barnyardgrass plant response rating (barnyardgrass [1]; Postemergence, 125 g ai/ha, scale 0 (no effect) to 100 (complete control)): 10 | Barnyardgrass plant response rating (barnyardgrass [1]; [9]): 20 | Plant response rating (0 to 100 scale), Surinam Grass (Surinam grass; [8]): 10 | Surinam Grass plant response rating (Surinam grass; [9]): 20 | Surinam Grass plant response rating (Surinam grass; [10]): 20 | Lambsquarters plant response rating (lambsquarters; [9]): 90 | Lambsquarters plant response rating (lambsquarters; [10]): 70 | Cocklebur plant response rating (cocklebur; [9]): 90 | Cocklebur plant response rating (cocklebur; [10]): 30 | Plant response rating (0 to 100 scale), Corn (corn; [8]): 0 | Corn plant response rating (corn; [9]): 20 | Corn plant response rating (corn; [10]): 10 | Oat, Wild plant response rating (wild oat; [9]): 10 | Oat, Wild plant response rating (wild oat; [10]): 0 | Blackgrass plant response rating (blackgrass; [9]): 20 | Blackgrass plant response rating (blackgrass; [10]): 10 | Sedge, Umbrella plant response rating [2]: 90 | Wheat plant response rating (wheat; 500 g ai/ha, scale 0 to 100, 0 no effect, 100 complete control, preemergence): 80 | Wheat plant response rating (wheat; [9]): 10 | Wheat plant response rating (wheat; [10]): 0 | Barnyardgrass plant response rating (barnyardgrass [3]): 60 | Rice plant response rating (rice): 60 | Plant response rating (0 to 100 scale), Morningglory (morningglory; [8]): 0 | Morningglory plant response rating (morningglory; [9]): 70 | Morningglory plant response rating (morningglory; [10]): 30 | Ducksalad plant response rating (ducksalad): 80

CCn1nc(C(C)(C)C)cc1C(=O)Nc1cc(C(=O)N(C)OC)ccc1F [Compound 244]
Crabgrass, Large plant response rating (0 to 100 scale) (large crabgrass; 125 g ai/ha, preemergence): 90 | Plant response rating, Crabgrass, Large (large crabgrass; [5]): 100 | Crabgrass, Large plant response rating (large crabgrass; [11]): 10 | Crabgrass, Large plant response rating (large crabgrass; [6]): 30 | Velvetleaf plant response rating (0 to 100 scale) (velvetleaf; 125 g ai/ha, 0 = no effect, 100 = complete control, preemergence): 70 | Plant response rating, Velvetleaf (velvetleaf; [7]): 100 | Velvetleaf plant response rating (velvetleaf; [11]): 40 | Velvetleaf plant response rating (velvetleaf; [6]): 60 | Barnyardgrass plant response rating (0 to 100 scale) (barnyardgrass [1]; 125 g ai/ha, preemergence): 80 | Plant response rating, Barnyardgrass (barnyardgrass [1]; [5]): 90 | Barnyardgrass plant response rating (barnyardgrass [1]; [11]): 10 | Barnyardgrass plant response rating (barnyardgrass [1]; [12]): 50 | Surinam Grass plant response rating (0 to 100 scale) (Surinam grass; 125 g ai/ha, preemergence): 70 | Plant response rating, Surinam Grass (Surinam grass; [5]): 90 | Surinam Grass plant response rating (Surinam grass; [11]): 20 | Surinam Grass plant response rating (Surinam grass; [6]): 30 | Lambsquarters plant response rating (0 to 100 scale) (lambsquarters; 125 g ai/ha): 90 | Plant response rating, Lambsquarters (lambsquarters; 500 g ai/ha, visual rating): 100 | Lambsquarters plant response rating (lambsquarters; [11]): 40 | Lambsquarters plant response rating (lambsquarters; [6]): 70 | Cocklebur plant response rating (0 to 100 scale) (cocklebur; 125 g ai/ha): 0 | Plant response rating, Cocklebur (cocklebur; 500 g ai/ha, visual rating): 20 | Cocklebur plant response rating (cocklebur; [11]): 30 | Cocklebur plant response rating (cocklebur; [12]): 80 | Corn plant response rating (0 to 100 scale) (corn; 125 g ai/ha, preemergence): 30 | Plant response rating, Corn (corn; [5]): 60 | Corn plant response rating (corn; [11]): 10 | Corn plant response rating (corn; [6]): 30 | Oat, Wild plant response rating (wild oat; [11]): 30 | Oat, Wild plant response rating (wild oat; [6]): 50 | Blackgrass plant response rating (blackgrass; [11]): 10 | Blackgrass plant response rating (blackgrass; [12]): 20 | Sedge, Umbrella plant response rating [2]: 80 | Wheat plant response rating (wheat; [11]): 10 | Wheat plant response rating (wheat; [6]): 20 | Barnyardgrass plant response rating (barnyardgrass [3]): 90 | Rice plant response rating (rice): 90 | Morningglory plant response rating (0 to 100 scale) (morningglory; 125 g ai/ha, preemergence): 0 | Plant response rating, Morningglory (morningglory; [5]): 20 | Morningglory plant response rating (morningglory; [11]): 10 | Morningglory plant response rating (morningglory; [6]): 20 | Ducksalad plant response rating (ducksalad): 90
